# Source: patent publication US6395740B1, “Calcitonin mimetics” (ZymoGenetics, Inc., priority 1997, dated 2002)
# Tested on: PTH-induced bone resorption in mouse calvaria
# Experiment: Calvarial assay to determine calcitonin escape
# Assay type: cell-based
# Description: Calvaria from 4-day old neonatal CD-1 mice (pregnant mice received from Charles River Laboratories) were trimmed with fine-tipped scissors to leave the parietal regions, including the sagittal suture. These trimmed bones were placed singly per well into 6-well culture cluster plates (Costar) with 1 mL/well of growth medium, Basel Medium (Eagle's with Earle's salts (GIBCO BRL, Gaithersburg, Md.)) containing 4.5 g/L glucose, 0.29 mg/mL L-glutamine, 1 mM sodium pyruvate, 15% heat-inactivated horse serum, antibiotics (penicillin-G 50 μg/mL, streptomycin 50 μg/mL, and neomycin 100 μg/mL) and containing 5 nM parathyroid hormone (PTH) 1-34 (Sigma), and rocked gently (RedRocker™) at 37° C. in a 5% CO2 humidified incubator for 17.5 hours preincubation. The concentration of PTH was chosen to insure maximum resorption. Calvaria designated as controls were pre-incubated in media without PTH.
# Following preincubation, medium was removed and replaced with 1 mL/well of growth medium, as above, containing 20 or 30 μg/mL of the calcitonin mimetic 850-0231 in DMSO (final assay concentration of DMSO less than or equal to 1%), and compared with human calcitonin (hCT) tested at 0.5, 1.0, 5.0, […] All control wells contained a final assay concentration of DMSO equal to that present in the calcitonin mimetic treated wells.
# Five bones were included in each sample group. Bones were incubated for a total of 98 hours. Time points were taken at 4, 8, 11, 24, 50.5, 72.5 and 98 hours. At each time point the media containing PTH was removed and fresh dilutions of compound in media were added to the calvaria. After the media was removed, total calcium measurements were made using a Nova 7/7+7 Electrolyte Analyzed (Nova Biomedical) according to the manufacturer's specifications. Induction of bone resorption by PTH is seen as an increase in the concentration of calcium in the growth medium due to degradation of the bone matrix.
# A second calvaria bone resorption/escape assay was performed as described above with time points at 4, 8, 12, 16, 24, 49 and 73 hours. […] Histology was done on the PTH-treated and the 30 μg/mL calcitonin mimetic-treated calvaria.
# A third calvaria bone resorption/escape assay was performed as described above with the following modifications. The calcitonin mimetic was tested at 5, 10 and 20 μg/mL. PTH was used at 10 nM to insure maximal resorption, hCT was tested at 2 nM and 8 nM and sCT was not included. Calvaria were pretreated with PTH for 19.75 hours. BrdU (bromodeoxyuridine, final concentration 10 μM) was added to the growth media for the final 17.5 hours, to identify proliferating cells. The lack of toxicity of 850-0231 will be verified by quartitating the number of proliferating BudU cells in histological sections of the calvaria. Time points were taken at 4, 8, 11, 24.5, 48 and 77 hours. A Novo CRT 10+ electrolyte analyzer (Nova Biomedical) was used to analyze the time point samples.
# At the final time point, visual observations were made and photos taken to note the extent of resorption, and migration from the calvarial cells as a measure of toxicity. Again, human calcitonin lost its inhibitory effect between hours 11 and 24 (Table 5). The calvaria treated with the mimetic at 5 and 10 μg/mL also lost inhibitory effect between 11 and 24 hours.
compound,measurement,setting,value
COc1cc(CN2CCN(C(=O)Nc3cccc(C(F)(F)F)c3)CC2)ccc1O [Compound 850-0231],escape / continued inhibition of resorption,"first assay, PTH 5 nM, 30 μg/mL","did not undergo this escape and continued to inhibit resorption throughout the 98th, hour"
same,Cumulative Total Calcium,"first assay, PTH 5 nM, 850-0231 30 μg/mL, 4 hours",0.16 mg %
same,Cumulative Total Calcium,"first assay, PTH 5 nM, 850-0231 30 μg/mL, 8 hours",0.28 mg %
same,Cumulative Total Calcium,"first assay, PTH 5 nM, 850-0231 30 μg/mL, 11 hours",0.36 mg %
same,Cumulative Total Calcium,"first assay, PTH 5 nM, 850-0231 30 μg/mL, 24 hours",0.48 mg %
same,Cumulative Total Calcium,"first assay, PTH 5 nM, 850-0231 30 μg/mL, 50.5 hours",0.32 mg %
same,Cumulative Total Calcium,"first assay, PTH 5 nM, 850-0231 30 μg/mL, 72.5 hours",0.12 mg %
same,Cumulative Total Calcium,"first assay, PTH 5 nM, 850-0231 30 μg/mL, 98 hours",−0.18 mg %
same,toxicity judged by number of cells migrated from calvaria,"first assay, final time point",not toxic to the cells
same,visual observation of the calvaria (resorption),"first assay, final time point (98 hours)",almost identical in appearance to the untreated calavaria
same,"histology of treated calvaria (integrity, toxicity)","second assay, 30 μg/mL",intact and showed minimal signs of toxicity
same,continued inhibition of resorption,"second assay, PTH 5 nM",able to continue inhibition of resorption throughout the 73rd hour
same,Cumulative Total Calcium,"second assay, PTH 5 nM, 850-0231 30 μg/mL, 4 hours",0.40 mg %
same,Cumulative Total Calcium,"second assay, PTH 5 nM, 850-0231 30 μg/mL, 8 hours",0.70 mg %
same,Cumulative Total Calcium,"second assay, PTH 5 nM, 850-0231 30 μg/mL, 12 hours",0.88 mg %
same,Cumulative Total Calcium,"second assay, PTH 5 nM, 850-0231 30 μg/mL, 16 hours",1.14 mg %
same,Cumulative Total Calcium,"second assay, PTH 5 nM, 850-0231 30 μg/mL, 24 hours",1.04 mg %
same,Cumulative Total Calcium,"second assay, PTH 5 nM, 850-0231 30 μg/mL, 49 hours",0.86 mg %
same,Cumulative Total Calcium,"second assay, PTH 5 nM, 850-0231 30 μg/mL, 73 hours",0.56 mg %
same,inhibition of resorption,"third assay, PTH 10 nM, 20 μg/mL",significantly inhibited at all time points
same,Cumulative Total Calcium,"third assay, PTH 10 nM, 850-0231 5 μg/mL, 4 hours",0.47 mg %
same,Cumulative Total Calcium,"third assay, PTH 10 nM, 850-0231 5 μg/mL, 8 hours",1.08 mg %
same,Cumulative Total Calcium,"third assay, PTH 10 nM, 850-0231 5 μg/mL, 11 hours",1.49 mg %
same,Cumulative Total Calcium,"third assay, PTH 10 nM, 850-0231 5 μg/mL, 24.5 hours",3.73 mg %
same,Cumulative Total Calcium,"third assay, PTH 10 nM, 850-0231 5 μg/mL, 48 hours",7.54 mg %
same,Cumulative Total Calcium,"third assay, PTH 10 nM, 850-0231 5 μg/mL, 77 hours",11.83 mg %
same,Cumulative Total Calcium,"third assay, PTH 10 nM, 850-0231 10 μg/mL, 4 hours",0.41 mg %
same,Cumulative Total Calcium,"third assay, PTH 10 nM, 850-0231 10 μg/mL, 8 hours",0.87 mg %
same,Cumulative Total Calcium,"third assay, PTH 10 nM, 850-0231 10 μg/mL, 11 hours",1.30 mg %
same,Cumulative Total Calcium,"third assay, PTH 10 nM, 850-0231 10 μg/mL, 24.5 hours",3.05 mg %
same,Cumulative Total Calcium,"third assay, PTH 10 nM, 850-0231 10 μg/mL, 48 hours",5.96 mg %
same,Cumulative Total Calcium,"third assay, PTH 10 nM, 850-0231 10 μg/mL, 77 hours",8.87 mg %
same,Cumulative Total Calcium,"third assay, PTH 10 nM, 850-0231 20 μg/mL, 4 hours",0.35 mg %
same,Cumulative Total Calcium,"third assay, PTH 10 nM, 850-0231 20 μg/mL, 8 hours",0.70 mg %
same,Cumulative Total Calcium,"third assay, PTH 10 nM, 850-0231 20 μg/mL, 11 hours",0.94 mg %
same,Cumulative Total Calcium,"third assay, PTH 10 nM, 850-0231 20 μg/mL, 24.5 hours",2.23 mg %
same,Cumulative Total Calcium,"third assay, PTH 10 nM, 850-0231 20 μg/mL, 48 hours",3.20 mg %
same,Cumulative Total Calcium,"third assay, PTH 10 nM, 850-0231 20 μg/mL, 77 hours",3.78 mg %
